In brackets after ≈: the same amount, converted by molar mass. Like-named read-outs stand apart in the source and are kept apart here.
Legend:
[1] = tested on: P. aeruginosa PA01; assay: Minimal inhibitory concentration of β-lactams by serial dilution; details: Pseudomonas aeruginosa, PA01, 18 h, standard serial dilution, 18 h at 37°C
Procedure: Determination of the Minimal Inhibitory Concentration of β-lactams: Cultures were prepared by inoculating Mueller–Hinton broth (5 mL) with a small amount of a glycerol stock of P. aeruginosa PA01 and then were grown at 37°C to an OD600 value of ≈0.5. 96-well plates containing a range of concentrations of β-lactams varying by factors of 2 were prepared. […] These broths were inoculated with the culture (100 μL) and allowed to incubate at 37°C for 18 h. […] All MIC determinations were performed in triplicate.

[2] = tested on: P. aeruginosa PA01; assay: Agar diffusion test; format: cell-based, Pseudomonas aeruginosa; details: 6 mm filter disks loaded with 30 μg of antibiotic, incubation overnight
[3] = molecular target: T1, StNagZ (Salmonella typhimurium, UniProt Q8ZQ06); assay: Kinetic analysis of inhibitors against StNagZ; format: biochemical; details: for S.R. (Ki OGA/Ki StNagZ): selectivity ratio
T1 construct: made in house

[4] = molecular target: T2, NAGLU (Homo sapiens, UniProt P54802); set-up: method as in PMID 10833408; details: read-out: NAGLU Ki; literature value; cited from earlier work
T2 sequence (P54802 24-743): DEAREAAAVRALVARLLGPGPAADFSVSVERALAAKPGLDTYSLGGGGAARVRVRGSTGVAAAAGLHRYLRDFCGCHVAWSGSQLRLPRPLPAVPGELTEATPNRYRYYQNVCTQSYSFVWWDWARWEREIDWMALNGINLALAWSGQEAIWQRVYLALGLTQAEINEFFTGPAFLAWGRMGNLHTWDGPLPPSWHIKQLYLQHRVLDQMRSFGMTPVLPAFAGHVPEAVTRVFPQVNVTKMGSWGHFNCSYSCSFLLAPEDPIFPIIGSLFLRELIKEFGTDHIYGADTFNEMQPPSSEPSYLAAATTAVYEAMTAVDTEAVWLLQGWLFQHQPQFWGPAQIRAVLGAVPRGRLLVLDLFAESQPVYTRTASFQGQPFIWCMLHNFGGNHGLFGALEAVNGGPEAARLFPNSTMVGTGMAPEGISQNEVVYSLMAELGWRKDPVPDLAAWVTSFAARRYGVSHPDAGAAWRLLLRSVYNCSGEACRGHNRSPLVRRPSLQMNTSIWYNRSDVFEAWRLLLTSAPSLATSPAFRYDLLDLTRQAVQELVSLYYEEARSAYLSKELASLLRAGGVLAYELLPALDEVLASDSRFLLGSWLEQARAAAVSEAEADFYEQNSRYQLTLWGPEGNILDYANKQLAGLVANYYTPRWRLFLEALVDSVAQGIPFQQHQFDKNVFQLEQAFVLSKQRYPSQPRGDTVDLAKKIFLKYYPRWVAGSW

[5] = molecular target: T3, VcNagZ (Vibrio cholerae serotype O1, UniProt Q9KU37); assay: Kinetic analysis of inhibitors against VcNagZ; format: biochemical; details: for S.R. (Ki OGA/Ki VcNagZ): selectivity ratio
T3 sequence (Q9KU37 1-330): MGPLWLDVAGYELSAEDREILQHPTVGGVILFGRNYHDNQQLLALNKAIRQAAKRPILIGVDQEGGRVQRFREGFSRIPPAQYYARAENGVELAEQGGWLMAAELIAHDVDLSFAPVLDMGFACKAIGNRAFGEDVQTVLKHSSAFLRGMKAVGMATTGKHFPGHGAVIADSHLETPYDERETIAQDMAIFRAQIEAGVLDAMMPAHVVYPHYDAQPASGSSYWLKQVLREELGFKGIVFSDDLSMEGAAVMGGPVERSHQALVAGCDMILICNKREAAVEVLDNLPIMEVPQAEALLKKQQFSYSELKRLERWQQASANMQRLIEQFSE
Procedure: (§1) Kinetic analysis of inhibitors: Assays against O-GlcNAcase, VcNagZ and StNagZ were performed in NaPi buffer (50 mM, NaCl (100 mM), pH 6.5) and for β-hexosaminidase B citrate buffer (50 mM, NaCl (100 mM), pH 4.25) using 4-methylumbelliferyl N-acetyl-β-D-glucosaminide as substrate. For NAGLU, assays were performed in acetate buffer (100 mM, pH 4.3), containing bovine serum albumin (0.5 mgmL^−1) using 4-methylumbelliferyl N-acetyl-α-D-glucosaminide as substrate. Release of 4-methylumbelliferone was monitored continuously using a fluorimeter plate reader for OGA, VcNagZ and StNagZ, and a 30 min stopped-assay procedure was used for β-hexosaminidase B and NAGLU (quenched with fourfold excess of quenching buffer, glycine (200 mM), pH 10.75). For OGA, the inhibitors were preincubated with the enzyme for 10 min before the addition of the substrate. Readings were taken at excitation and emission wavelengths of 368 nm and 450 nm respectively. […] Inhibitors were added at a range of concentrations encompassing their Ki values. The rates at each inhibitor concentration were plotted and the best fit line through the points ascertained. The −1/Ki was taken as the point where the line of best fit intersected with 1/Vmax.

[6] = molecular target: T4, O-GlcNAcase (OGA) (Homo sapiens, UniProt O60502); assay: Kinetic analysis of inhibitors against O-GlcNAcase; format: biochemical
T4 sequence (O60502 1-916): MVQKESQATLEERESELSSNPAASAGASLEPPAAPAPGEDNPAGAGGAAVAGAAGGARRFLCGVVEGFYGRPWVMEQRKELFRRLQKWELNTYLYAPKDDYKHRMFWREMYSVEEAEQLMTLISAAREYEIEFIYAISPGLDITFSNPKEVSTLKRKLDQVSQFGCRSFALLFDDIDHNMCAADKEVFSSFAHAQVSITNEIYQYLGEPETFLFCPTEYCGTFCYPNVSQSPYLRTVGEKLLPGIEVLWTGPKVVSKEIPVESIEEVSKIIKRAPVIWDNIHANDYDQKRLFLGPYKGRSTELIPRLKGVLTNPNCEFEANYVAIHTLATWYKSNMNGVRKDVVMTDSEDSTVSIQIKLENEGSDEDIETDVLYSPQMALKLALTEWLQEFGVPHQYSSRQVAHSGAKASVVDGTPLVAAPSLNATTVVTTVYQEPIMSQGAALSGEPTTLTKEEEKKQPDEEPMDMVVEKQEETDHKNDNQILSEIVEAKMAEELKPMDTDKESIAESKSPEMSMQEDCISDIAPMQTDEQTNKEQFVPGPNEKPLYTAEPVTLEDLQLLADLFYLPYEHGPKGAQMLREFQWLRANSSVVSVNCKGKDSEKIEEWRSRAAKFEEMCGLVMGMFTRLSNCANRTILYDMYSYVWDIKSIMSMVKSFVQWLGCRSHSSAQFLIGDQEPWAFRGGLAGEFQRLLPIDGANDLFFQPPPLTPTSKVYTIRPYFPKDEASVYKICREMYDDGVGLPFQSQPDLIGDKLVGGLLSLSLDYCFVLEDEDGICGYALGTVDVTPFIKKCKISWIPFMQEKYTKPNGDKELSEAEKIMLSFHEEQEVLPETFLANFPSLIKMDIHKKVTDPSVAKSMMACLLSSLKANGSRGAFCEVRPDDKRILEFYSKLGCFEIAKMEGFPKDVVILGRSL
Procedure: as §1

[7] = molecular target: T2, NAGLU; assay: Kinetic analysis of inhibitors against NAGLU; format: biochemical
Procedure: as §1

[8] = molecular target: T5, β-hexosaminidase B (Homo sapiens, UniProt P07686); assay: Kinetic analysis of inhibitors against β-hexosaminidase B; format: biochemical
T5 sequence (P07686 122-556): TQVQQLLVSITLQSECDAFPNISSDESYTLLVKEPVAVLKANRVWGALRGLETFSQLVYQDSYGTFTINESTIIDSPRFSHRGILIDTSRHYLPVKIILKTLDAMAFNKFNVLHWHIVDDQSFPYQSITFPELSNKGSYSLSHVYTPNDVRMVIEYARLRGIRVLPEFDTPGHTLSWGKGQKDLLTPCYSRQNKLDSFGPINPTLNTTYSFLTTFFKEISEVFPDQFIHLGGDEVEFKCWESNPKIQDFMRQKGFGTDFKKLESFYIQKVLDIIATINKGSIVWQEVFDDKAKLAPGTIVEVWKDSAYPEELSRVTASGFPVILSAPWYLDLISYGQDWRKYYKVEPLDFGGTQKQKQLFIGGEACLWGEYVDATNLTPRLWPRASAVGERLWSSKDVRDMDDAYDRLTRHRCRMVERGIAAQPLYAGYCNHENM
Procedure: as §1

[9] = tested on: P. aeruginosa PA01; assay: Control: 21 alone as inhibitor of bacterial growth; format: cell-based, Pseudomonas aeruginosa; details: up to 1 mM (data not shown)
Excerpt: . […] Of note is that the concentration of 21 required to give rise to the increased susceptibility observed is fivefold less than the concentration of the PUGNAc analogue O-(2-deoxy-2-N-2-ethylbutyryl-D-glucopyranosylidene)amino N-phenylcarbamate (EtBuPUG) used previously to induce a similar effect.[23]

[10] = +21 (20 μL of 1 mM in H2O per well)

SMILES | MIC [1, 10] [µg/mL] | MIC ([1]; −21) [µg/mL] | Clearing radius ([2]; +21) [mm] | Clearing radius ([2]; −21) [mm] | Ki [3] [µM] | S.R. (Ki OGA/Ki StNagZ) [3] | Ki [4] [µM] | Ki [5] [µM] | S.R. (Ki OGA/Ki VcNagZ) [5] | Ki [6] [µM] | Ki [7] [µM] | Ki [8] [µM] | effect on bacterial growth rates [9]
CC1(C)S[C@@H]2[C@H](NC(=O)[C@H](N)c3ccccc3)C(=O)N2[C@H]1C(=O)O [Ampicillin, ampicillin] | 128 (≈ 366 µM) | 512 (≈ 1470 µM) | – | – | – | – | – | – | – | – | – | – | –
C[C@H]1[C@H](NC(=O)/C(=N\OC(C)(C)C(=O)O)c2csc(N)n2)C(=O)N1S(=O)(=O)O [Aztreonam, aztreonam] | 0.5 (≈ 1.15 µM) | 1 (≈ 2.3 µM) | – | – | – | – | – | – | – | – | – | – | –
CO[C@@]1(NC(=O)Cc2cccs2)C(=O)N2C(C(=O)O)=C(COC(N)=O)CS[C@@H]21 [Cefoxitin, cefoxitin] | 512 (≈ 1200 µM) | 2050 (≈ 4790 µM) | – | – | – | – | – | – | – | – | – | – | –
CC(C)(O/N=C(\C(=O)N[C@@H]1C(=O)N2C(C(=O)[O-])=C(C[n+]3ccccc3)CS[C@H]12)c1csc(N)n1)C(=O)O [Ceftazidime, ceftazidime] | 0.5 (≈ 0.915 µM) | 2 (≈ 3.66 µM) | 14.3 | 12.2 | – | – | – | – | – | – | – | – | –
CC(=O)N[C@H]1CN[C@H](CO)[C@@H](O)[C@@H]1O [Compound 1, 2-Acetamido-1,5-imino-1,2,5-trideoxy-D-glucitol] | – | – | – | – | 25.2 | 0.94 | 0.45 | 8.5 | 2.8 | 23 | – | – | –
CCC(=O)N[C@H]1CN[C@H](CO)[C@@H](O)[C@@H]1O [Compound 20, 1,5-Imino-2-propamido-1,2,5-trideoxy-D-glucitol] | – | – | – | – | 45.4 | 2.9 | – | 4.2 | 31 | 130 | 96 | 61 | –
CCCC(=O)N[C@H]1CN[C@H](CO)[C@@H](O)[C@@H]1O [Compound 21, 2-Butamido-1,5-imino-1,2,5-trideoxy-D-glucitol] | – | – | – | – | – | >22 | – | 9.4 | >53 | > 500 | > 1000 | 1460 | no differences in growth rates
CCCCC(=O)N[C@H]1CN[C@H](CO)[C@@H](O)[C@@H]1O [Compound 22, 1,5-Imino-1,2,5-trideoxy-2-valeramido-D-glucitol] | – | – | – | – | 47.3 | >21 | – | 110 | >9 | > 1000 | > 1000 | > 5000 | –
CCCCCC(=O)N[C@H]1CN[C@H](CO)[C@@H](O)[C@@H]1O [Compound 23, 2-Hexamido-1,5-imino-1,2,5-trideoxy-D-glucitol] | – | – | – | – | 102 | >10 | – | 1130 | >0.9 | > 1000 | > 1000 | > 5000 | –
CC(C)C(=O)N[C@H]1CN[C@H](CO)[C@@H](O)[C@@H]1O [Compound 24, 1,5-Imino-2-isobutamido-1,2,5-trideoxy-D-glucitol] | – | – | – | – | 24.6 | >40 | – | 15.8 | – | > 1000 | 800 | 670 | –
CC(C)CC(=O)N[C@H]1CN[C@H](CO)[C@@H](O)[C@@H]1O [Compound 25, 1,5-Imino-2-isovaleramido-1,2,5-trideoxy-D-glucitol] | – | – | – | – | 294 | >3.4 | – | 555 | >1.8 | > 1000 | > 1000 | > 5000 | –
C[C@@H](O)[C@H]1C(=O)N2C(C(=O)O)=C(SCCN=CN)C[C@H]12 [Imipenem, imipenem] | 4 (≈ 13.4 µM) | 8 (≈ 26.7 µM) | 13.3 | 11.9 | – | – | – | – | – | – | – | – | –
